Assays:
[1] = FUra versus FdUrd; cited from earlier work
angiogenesis = conditions: cited from earlier work
[2] = substrate: O=c1[nH]c(=O)n([C@H]2C[C@H](O)[C@@H](CO)O2)cc1[N+](=O)[O-]; assay: UV-Vis spectrophotometric thymidine phosphorylase assay with 5NdU as substrate; assay type: biochemical; conditions: other: substrate, pH 6.01
Method: Binding constants were determined by UV-Vis spectrophotometery using 2′-deoxy-5-nitrouridine (5NdU) as the substrate (Km=50 μM at pH 6.01). The reaction mixture consisted of inhibitor (approximately 1/10×Ki to 10×Ki), 50 mM MES (pH 6.01), 150 mM NaCl, 1 mM EDTA, 5 mM inorganic phosphate, and 250 μM 5NdU in a total of 1 ml. Thymidine phosphorylase was added to approximately 10 nM (1 nM enzyme was used for D723333-P) and the reaction was monitored at λ=347 nm for 30 min. At least five concentrations of inhibitor were used for each compound and experiments were repeated in triplicate. Initial rates were determined by a linear least-squares fit. The Ki for each compound was then determined using the following equation: [formula] where ν is the rate of reaction and V is the maximal rate in the absence of inhibitor.

## O=c1[nH]cc(F)c(=O)[nH]1 [FUra, 5-fluorouracil]
[1]
  fold less potent than FdUrd: 100 to 1000 fold

## N=C1CCCN1Cc1[nH]c(=O)[nH]c(=O)c1Cl [TPI]
angiogenesis
  antiangiogenic activity in vivo: some antiangiogenic activity in vivo

B1: Thymidine phosphorylase (Homo sapiens) (protein)
chain: APPAPGDFSGEGSQGLPDPSPEPKQLPELIRMKRDGGRLSEADIRGFVAAVVNGSAQGAQIGAMLMAIRLRGMDLEETSVLTQALAQSGQQLEWPEAWRQQLVDKHSTGGVGDKVSLVLAPALAACGCKVPMISGRGLGHTGGTLDKLESIPGFNVIQSPEQMQVLLDQAGCCIVGQSEQLVPADGILYAARDVTATVDSLPLITASILSKKLVEGLSALVVDVKFGGAAVFPNQEQARELAKTLVGVGASLGLRVAAALTAMDKPLGRCVGHALEVEEALLCMDGAGPPDLRDLVTTLGGALLWLSGHAGTQAQGAARVAAALDDGSALGRFERMLAAQGVDPGLARALCSGSPAERRQLLPRAREQEELLAPADGTVELVRALPLALVLHELGAGRSRAGEPLRLGVGAELLVDVGQRLRRGTPWLRVHRDGPALSGPQSRALQEALVLSDRAPFAAPSPFAELVLPPQQ
[2]
  Km: 50 µM

— patent US20070275988A1, “Transition state structure and inhibitors of thymidine phosphorylases” (priority 2003, published 2007)
